From ChEMBL document CHEMBL1136998, “Bis-neonicotinoid insecticides: Observed and predicted binding interactions with the nicotinic receptor” (Bioorg Med Chem Lett, 2009)

assay: Displacement of [3H]IMI from Drosophila melanogaster brain nAChR

SMILES | Ki [µM]
O=[N+]([O-])/N=C1/N(CCCCCCCCN2CCN(Cc3ccc(Cl)nc3)/C2=N\[N+](=O)[O-])CCN1Cc1ccc(Cl)nc1 | 0.88
O=[N+]([O-])/N=C1/N(Cc2ccc(CN3CCN(Cc4ccc(Cl)nc4)/C3=N\[N+](=O)[O-])cc2)CCN1Cc1ccc(Cl)nc1 | 1.18
O=[N+]([O-])/N=C1/N(CCCCCCCN2CCN(Cc3ccc(Cl)nc3)/C2=N\[N+](=O)[O-])CCN1Cc1ccc(Cl)nc1 | 0.14
O=[N+]([O-])/N=C1/N(CCCCCCCCCN2CCN(Cc3ccc(Cl)nc3)/C2=N\[N+](=O)[O-])CCN1Cc1ccc(Cl)nc1 | 1.38
O=[N+]([O-])/N=C1/N(CCCCCN2CCN(Cc3ccc(Cl)nc3)/C2=N\[N+](=O)[O-])CCN1Cc1ccc(Cl)nc1 | 5.35
O=[N+]([O-])/N=C1/N(CC/C=C\CCN2CCN(Cc3ccc(Cl)nc3)/C2=N\[N+](=O)[O-])CCN1Cc1ccc(Cl)nc1 | 0.78
O=[N+]([O-])/N=C1/N(C/C=C/C=C/CN2CCN(Cc3ccc(Cl)nc3)/C2=N\[N+](=O)[O-])CCN1Cc1ccc(Cl)nc1 | 0.97
O=[N+]([O-])/N=C1/N(CC/C=C/CCN2CCN(Cc3ccc(Cl)nc3)/C2=N\[N+](=O)[O-])CCN1Cc1ccc(Cl)nc1 | 2.49
O=[N+]([O-])/N=C1/N(CCCCCCN2CCN(Cc3ccc(Cl)nc3)/C2=N\[N+](=O)[O-])CCN1Cc1ccc(Cl)nc1 | 0.68

assay: Displacement of [3H]IMI from house fly nAChR; design: species or system Musca domestica

SMILES | Ki [µM]
O=[N+]([O-])/N=C1/N(CCCCCCCCCCN2CCN(Cc3ccc(Cl)nc3)/C2=N\[N+](=O)[O-])CCN1Cc1ccc(Cl)nc1 | 110
O=[N+]([O-])/N=C1\N(Cc2ccc(Cl)nc2)CCN1CN1CCN(Cc2ccc(Cl)nc2)/C1=N\[N+](=O)[O-] | 27
